Test results taken from PMC4315423 (Journal of Medicinal Chemistry, 2014).
Values after ≈ are worked out from the molar mass of the structure shown.

What was measured:
[1] = in vivo pharmacokinetics, plasma and brain, single ip dose in male C57BL/6 mice; parameters: species or system mouse; conditions: ip 30 mg/kg
[2] = aqueous kinetic solubility; format: physicochemical; conditions: PBS aqueous buffer

- time to reach brain Cmax ([1]; brain, C57BL/6 mice): ≤ 15 min
- behavioural observation after dosing ([1]; male C57BL/6 mice, at 5 min after dosing, lasted for about 2 h): appeared less active
- solubility kinetic [2]: 46.5 µg/mL (≈ 113 µM)
SMILES: CN1C(=O)c2ccccc2[S@+]([O-])c2ccc(C(=O)NCCc3cccs3)cc21 [compound 65, 10-Methyl-11-oxo-N-(2-(thiophen-2-yl)ethyl)-10,11-dihydrodibenzo[b,f][1,4]thiazepine-8-carboxamide 5-(S)-Oxide]
